Values joined by “and” are separate entries in the source; they are usually repeats but may differ in a detail not shown here. Equal values may be shown once. Read-outs that look alike come from different tables or passages of the source. Where no end group is shown, it is not given here.

The source of these data is patent US20200354404A1, “PEPT[…], […] AND USES THEREOF” (priority 2019, published 2020).

The subject of data set [1] is HMGB1-induced TNF secretion. As to the kind of experiment: HMGB1-induced TNF secretion. It is filed as cell-based. As to conditions: FIG. 7.
The next data set deals with mice. In words: APAP-induced cytokines, liver enzymes and lethality in mice. It is filed as in vivo.
Data set [2] can be described thus: Animal studies (protection). Particulars: in vivo.
For data set [3] the following is noted: iv 1 mg/kg.
Another data set can be described thus: in vivo. Particulars: male, Sprague-Dawley, rat, 1 mg/kg; for AUC(0-t): AUClast; for AUC(0-t) / MRT last: iv 1 mg/kg; for MRT last: MRTlast.
Data set [4] in a line: in vitro. Particulars: mouse, mouse serum.
The target of a further data set is IRTK (Homo sapiens, UniProt P06213). As to conditions: Kato et al. 2009; cited from earlier work.
IRTK, sequence (P06213 28-1382): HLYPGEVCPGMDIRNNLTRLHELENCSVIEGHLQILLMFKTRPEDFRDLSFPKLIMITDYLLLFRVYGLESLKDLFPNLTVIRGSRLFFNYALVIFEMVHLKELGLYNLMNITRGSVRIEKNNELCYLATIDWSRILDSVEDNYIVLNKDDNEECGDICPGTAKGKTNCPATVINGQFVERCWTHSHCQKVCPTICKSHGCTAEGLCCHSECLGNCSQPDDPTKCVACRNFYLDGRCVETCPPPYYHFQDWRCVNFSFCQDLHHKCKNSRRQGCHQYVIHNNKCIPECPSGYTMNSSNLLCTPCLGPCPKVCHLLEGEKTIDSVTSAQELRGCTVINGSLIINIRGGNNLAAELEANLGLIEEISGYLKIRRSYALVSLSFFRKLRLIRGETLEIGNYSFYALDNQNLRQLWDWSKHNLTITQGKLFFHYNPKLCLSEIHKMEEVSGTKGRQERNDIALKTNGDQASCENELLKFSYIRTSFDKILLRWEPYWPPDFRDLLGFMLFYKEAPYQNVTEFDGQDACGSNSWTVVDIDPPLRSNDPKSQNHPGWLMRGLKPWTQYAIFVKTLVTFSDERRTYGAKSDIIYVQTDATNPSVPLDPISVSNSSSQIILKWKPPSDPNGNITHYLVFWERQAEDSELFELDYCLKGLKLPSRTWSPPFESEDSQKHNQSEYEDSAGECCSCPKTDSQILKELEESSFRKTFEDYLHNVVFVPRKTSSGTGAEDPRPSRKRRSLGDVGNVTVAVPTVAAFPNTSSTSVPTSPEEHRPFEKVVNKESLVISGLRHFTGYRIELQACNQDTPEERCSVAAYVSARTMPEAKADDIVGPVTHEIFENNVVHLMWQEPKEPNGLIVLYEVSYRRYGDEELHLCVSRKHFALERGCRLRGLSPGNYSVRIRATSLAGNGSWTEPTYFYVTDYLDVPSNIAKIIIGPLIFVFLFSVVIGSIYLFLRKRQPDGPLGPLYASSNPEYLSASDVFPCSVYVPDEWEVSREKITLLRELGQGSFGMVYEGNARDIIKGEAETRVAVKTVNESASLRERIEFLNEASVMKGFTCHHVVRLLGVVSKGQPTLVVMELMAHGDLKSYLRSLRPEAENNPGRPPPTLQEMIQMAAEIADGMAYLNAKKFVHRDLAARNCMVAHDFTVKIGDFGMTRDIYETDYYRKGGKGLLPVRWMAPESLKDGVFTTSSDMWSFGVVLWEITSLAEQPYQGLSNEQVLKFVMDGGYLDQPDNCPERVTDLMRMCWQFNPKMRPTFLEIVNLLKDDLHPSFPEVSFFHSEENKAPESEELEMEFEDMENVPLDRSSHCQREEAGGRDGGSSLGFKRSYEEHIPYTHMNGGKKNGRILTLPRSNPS
The nature of data set [5]: in vitro. As to conditions: mouse, serum.
Protocol: Stability of Bradykinin amide and (1-9)-Aza-Bradykinin in serum was measured.
For data set [6] the following is noted: cited from earlier work.
The target of a further data set is OPRM-1 receptor (Homo sapiens, UniProt P35372). In words: Binding to OPRM-1. Particulars: FIG. 10. From the text:
FIG. 10 are graphs depicting binding of K763 and Endomorphin-2 binding to OPRM-1.
The binding is depicted in FIG. 10.

Data set [7] can be described thus: Stability of endomorphin-2 in mouse serum. It is filed as in vitro ADME. Particulars: read-out: amount (AUC O.D.254) in mouse serum less than amount originally placed. From the text: In addition, as the result of the rapid hydrolysis and enzymatic degradation, a number of peptides are not stable enough to be used in drug discovery, diagnosis, prevention and treatment of diseases.
A graph of stability of EM2 and K763 in mice serum is depicted in FIG. 11.

OPRM-1 receptor, sequence (P35372 whole entry): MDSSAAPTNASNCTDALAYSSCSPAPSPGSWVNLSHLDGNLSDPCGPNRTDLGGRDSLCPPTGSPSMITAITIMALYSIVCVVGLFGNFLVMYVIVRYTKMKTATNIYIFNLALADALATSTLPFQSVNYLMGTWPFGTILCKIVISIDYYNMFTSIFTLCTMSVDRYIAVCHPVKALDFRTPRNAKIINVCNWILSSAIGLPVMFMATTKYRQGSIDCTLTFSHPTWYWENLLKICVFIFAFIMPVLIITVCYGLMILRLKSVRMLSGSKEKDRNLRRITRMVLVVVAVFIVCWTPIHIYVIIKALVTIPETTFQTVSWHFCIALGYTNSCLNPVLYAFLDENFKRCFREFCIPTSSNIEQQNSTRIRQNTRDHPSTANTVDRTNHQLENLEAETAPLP

One may read the half-life as how long it takes for the measured level to halve. The AUC(0-t) is exposure summed from dosing to a finite time, without extrapolation to infinity. The term MRT last denotes the average time that molecules of a dose stay in the body. In the case of `NC(=O)N(CCC(=O)O)NC(=O)[C@H](CO)NC(=O)[C@H](CO)NC(=O)N(N)Cc1ccccc1` [K883], the “HMGB1-induced TNF secretion (in words)” value in data set [1] is listed as “inhibits”. Further, in the data set on mice (FIG. 8), the “APAP-induced pro-inflammatory cytokines (in words)” value is on record as “reduction” and the “APAP-induced serum liver enzymes (in words)” value was “reduction”. Moreover, the “APAP-induced lethality in mice (in words)” value in the data set on mice (FIG. 9) is on record as “reduced”. Besides, the “protection in animal studies (in words)” value in data set [2] is listed as “protective”. In addition, the Plasma concentration in data set [3] (0.50 hr, individual rats, 1 mg/kg) was 3020 ng/mL and 2500 ng/mL and 3220 ng/mL. For the same compound, the Plasma concentration in data set [3] (1.0 hr, individual rats, 1 mg/kg) was 814 ng/mL and 1160 ng/mL and 1300 ng/mL. Besides, the Plasma concentration in data set [3] (2.0 hr, individual rats, 1 mg/kg) is 133 ng/mL and 130 ng/mL and 142 ng/mL. Also, in [3] (4.0 hr, individual rats, 1 mg/kg), the Plasma concentration was 17.0 ng/mL and 15.1 ng/mL and 17.1 ng/mL. In addition, in [3] (6.0 hr, individual rats, 1 mg/kg), the Plasma concentration is 6.49 ng/mL and 4.04 ng/mL and 4.77 ng/mL. In addition, in [3] (8.0 hr, individual rats, 1 mg/kg), the Plasma concentration is 2.0 ng/mL and 0.871 ng/mL and 1.68 ng/mL. In addition, the tmax in data set [3] (individual rats) amounted to 0 h. The AUClast in [3] (individual rats, 1 mg/kg) was 3807 ng·h/mL and 3749 ng·h/mL. Besides, in data set [3] (mean of 3 rats), the “tmax, Mean” value is 0 h. The half-life in the data set “in vivo” (in vivo half-life) was greater than 69 min. In “in vivo” (iv), this compound yielded a level at 0.5 h of 2910 ng/mL, a level at 1 h of 1090 ng/mL, a level at 2 h of 135 ng/mL and a level at 4 h of 16.6 ng/mL. Also, in “in vivo” (iv), the level at 6 h amounted to 5.1 ng/mL and the level at 8 h stood at 1.52 ng/mL. Further, in “in vivo” (iv, Mean, mean of 3 rats), the AUC(0-t) turned out to be 3780 ng·h/mL and the MRT last is 33.4 min. Also, in “in vivo” (iv, individual rats), the AUC(0-t) amounted to 3770 ng·h/mL and the MRT last was 32.1 min. In the data set “in vitro [4]”, this compound had a half-life greater than 900 min.

Turning to Ac-Asp1-Ile2-Tyr3-Glu4-Thr5-NH2, the “IRTK phosphorylation (in words)” value on IRTK is reported as “inhibit”.

RPPGFSPFR [bradykinin] registered a metabolised at 3 h in “in vitro [5]” of roughly 97%. The in vivo half-life result in data set [6] (background statement) was “less than 1 minutes”.

Regarding `NC(=O)N(Cc1ccccc1)NC(=O)N(Cc1ccccc1)NC(=O)[C@@H]1CCCN1C(=O)N(N)Cc1ccc(O)cc1` [K763], on OPRM-1 receptor, the “affinity for OPRM-1 compared with Endomorphin-2 (in words)” value is “stronger affinity than Endomorphin-2” and the “binding to OPRM-1 receptor (in words)” value is recorded as “shown to bind”.

In the case of `N[C@@H](Cc1ccccc1)C(=O)N[C@@H](CO)C(=O)N[C@@H](CO)C(=O)N[C@@H](CCC(=O)O)C(=O)O` [FSSE, reference compound], the “protection in animal studies (in words)” value in [2] is “protective”. Besides, the values for the half-life in the data set “in vivo” and in the data set “in vitro [4]” were less than 1 min and 60 min, respectively. For the same compound, the in vivo half-life entry in data set [6] (in vivo) is recorded as “less than 5 minutes”.

On to `NC(=O)C(Cc1ccccc1)NC(=O)C(Cc1ccccc1)NC(=O)[C@@H]1CCCN1C(=O)C(N)Cc1ccc(O)cc1` (stereo partly drawn) [Endomorphin-2], for which, in data set [7], the metabolised at 2 h was roughly 95%.
